US20130331389A1, “Methods and Compositions for Cardiomyocyte Replenishment by Endogenous and Progenitor Stem Cells” (NATIONAL CHENG KUNG UNIVERSITY, priority 2012, published 2013)

Experiments:
Assay type in all cases: in vivo, mouse
[1] = tested on: MMP2, MMP9, TNF-α, IL-1β and IL-6; experiment: Quantitative RT-PCR of inflammatory cytokines in infarct region; settings: young mice
Experimental: (§1) To induce Cre recombination to achieve GFP labeling of cardiomyocytes, tamoxifen (Sigma) was dissolved in sunflower oil (Sigma) at a concentration of 5 mg/ml. The tamoxifen solution was injected intraperitoneally into M/Z mice daily at a dosage of 40 μg per 1 g body weight for 14 days, and the same dosage was injected twice daily for short-term labeling using methods known in the art (Laugwitz, K.-L. et al. Nature 433, 647-653 (2005)). All experimental conditions were optimized prior to the PGE2, indomethacin and TGF-β Type I Receptor Kinase Inhibitor II (ALK5 Inhibitor II, ALK5i, Merck) treatments. The mice treated with PGE2 or PGI2 (Vegiopoulos, A. et al. Science 328, 1158-1161 (2010)) (both from Sigma) were injected intraperitoneally with 3.33 ng of drug per 1 g of body weight dissolved in absolute ethanol twice daily. […]
(§2) The total RNA isolated from the ischemic region or remote area of MI hearts was reverse transcribed using the SuperScript III (Invitrogen) system according to the manufacturer's protocol. For quantitative PCR, the SYBR Green reagent (Maestrogen) was used according to the manufacturer's protocol. The analysis of relative gene expression was performed using the 2̂[−delta delta Ct] method and sequence-specific primers designed for semi-quantitative PCR and real-time RT-PCR (FIG. 11).

[2] = tested on: M1 (CD11b+/CD11c+) and M2 (CD11b+/CD206+) macrophages; experiment: Immunostaining of M1 and M2 macrophages in heart sections day 3 post-infarction; settings: young mice
Experimental: as §1, with “daily. For the indomethacin treatment, mice were fed with water containing indomethacin (Sigma, 15 μg/ml) for different periods of time.” for “daily.”
The harvested hearts were fixed with 4% paraformaldehyde and embedded in paraffin. […] A DAB substrate kit (Vector Laboratories) was used for immunohistochemistry and appropriate secondary antibodies (Invitrogen or Abcam) were used for visualization under a fluorescence microscope. […] The appropriate secondary antibodies (Invitrogen or Jackson ImmunoResearch) were used for visualization under a fluorescence microscope. […]

CD11b = experiment: Quantitative RT-PCR of myeloid cell marker CD11b in infarct region; settings: both young and old mice; day 3 post-infarction
Experimental: as §1, §2

MerCreMer/ZEG (M/Z) mice [3] = experiment: Echocardiography after myocardial infarction (ejection fraction); settings: echocardiography at one and two months post-infarction
Experimental: (§3) M/Z mice were subjected to experimental myocardial infarction (MI) one month after the last tamoxifen injection. MI was generated by ligating the left anterior descending coronary artery at 2-3 mm distal to the left atrial appendage. For cell transplantation experiments, intramyocardial injections were performed immediately after coronary ligation. A total of 6×10^5 cardiac Sca-1^+ cells were injected per mouse in two divided injections (5 μl/injection). For BrdU labeling, the mice were subcutaneously implanted with osmotic minipump (Alzet) at the time of surgery and 40 μg/μl of BrdU (Sigma) was administrated. For immunohistological studies, mice were sacrificed and the hearts were harvested at different time points following experimental MI surgery. Cardiac performances were assessed by echocardiography at 28 and 56 days after operation using Vevo 770 (Visualsonics, Toronto, Canada).
To induce Cre recombination to achieve GFP labeling of cardiomyocytes, tamoxifen (Sigma) was dissolved in sunflower oil (Sigma) at a concentration of 5 mg/ml. The tamoxifen solution was injected intraperitoneally into M/Z mice daily at a dosage of 40 μg per 1 g body weight for 14 days, and the same dosage was injected twice daily for short-term labeling using methods known in the art (Laugwitz, K.-L. et al. Nature 433, 647-653 (2005)). […]

MerCreMer/ZEG (M/Z) mice [4] = experiment: Cardiomyocyte replenishment after myocardial infarction, GFP+ / β-Gal+ cardiomyocyte counting; settings: for stem cell-mediated cardiomyocyte reconstitution: aged mice (>18 months), 14 days post-MI
Experimental: All experiments involving animals were conducted in accordance with the Guide for the Use and Care of Laboratory Animals, and all animal protocols have been approved by National Cheng Kung University. Sca-1^− GFP, B6.Cg-Tg(Ly6a-GFP)G5Dzk/J and EP2^−/−, B6.129-Ptger2^tm/Brey/J mice were obtained from Jackson Laboratory. The double transgenic MerCreMer/ZEG (M/Z) mice were generated by crossbreeding MerCreMer and Z/EG mice (Jackson Laboratory), which have C57BL/6SV129 and C57BL/6J (N7) background strains, respectively. The MerCreMer mice contain a tamoxifen-inducible Cre recombinase fusion protein driven by the cardiomyocyte-specific α-MHC promoter. In Z/EG mice, GFP replace constitutive β-Gal expression after the removal of a LoxP-flanked stop sequence by Cre.
as §3
To induce Cre recombination to achieve GFP labeling of cardiomyocytes, tamoxifen (Sigma) was dissolved in sunflower oil (Sigma) at a concentration of 5 mg/ml. The tamoxifen solution was injected intraperitoneally into M/Z mice daily at a dosage of 40 μg per 1 g body weight for 14 days, and the same dosage was injected twice daily for short-term labeling using methods known in the art (Laugwitz, K.-L. et al. Nature 433, 647-653 (2005)). All experimental conditions were optimized prior to the PGE2, indomethacin and TGF-β Type I Receptor Kinase Inhibitor II (ALK5 Inhibitor II, ALK5i, Merck) treatments. The mice treated with PGE2 or PGI2 (Vegiopoulos, A. et al. Science 328, 1158-1161 (2010)) (both from Sigma) were injected intraperitoneally with 3.33 ng of drug per 1 g of body weight dissolved in absolute ethanol twice daily. For the indomethacin treatment, mice were fed with water containing indomethacin (Sigma, 15 μg/ml) for different periods of time. The indomethacin-containing water was changed every 3 days. The mice subjected to the celecoxib (Lyons, T. R. et al. Nat. Med. 17, 1109-1115 (2011)) (Sigma) treatment were injected intraperitoneally with 5 μg of drug per 1 g of body weight daily. For ALK5i treatment, aged mice were injected intraperitoneally once per day with 1 μg of drug per 1 g of body weight one day before surgery and continuously until day 10 post-MI. Celecoxib and ALK5i were dissolved in ethanol and DMSO, respectively.
All of the cellular quantifications were performed double-blindly to minimize personal bias. […] For the cardiomyocyte cell counts, 3 sections from each heart, and 2 infarction border zones and 1 remote area from each section were analyzed at a magnification of 200× by light microscopy. Cells with visible sarcomere structures were analyzed, and the average number of cells counted was 171.8±5.8 per photo image. For the small cardiac cell counts, more than five sections from each heart were analyzed at a magnification of 400× using fluorescence microscopy. The average number of cells counted was 17.01±0.99 per photo image, and more than one hundred and fifty cells were analyzed from each heart. As quantification result is the averaged values calculated from the pictures taken from six border zone sections per heart, personal variation has been minimized. […]

interleukin-10 (IL-10) = experiment: Quantitative RT-PCR of IL-10 at injured region; settings: both young and old mice; day 3 after infarction
Experimental: as §1, §2

CCCCC[C@H](O)/C=C/C1C(O)CC(=O)C1C/C=C\CCCC(=O)O (stereo partly drawn) [PGE2, (5Z,11α,13E,15S)-7-[3-hydroxy-2-(3-hydroxyoct-1-enyl)-5-oxo-cyclopentyl]hept-5-enoic acid]
expression of inflammatory cytokines acting downstream of PGE2 [1]: further enhanced
number of M1 macrophage [2]: reduced
number of M2 macrophage [2]: increased
CD11b level (CD11b): induced
cardiac function post-MI (MerCreMer/ZEG (M/Z) mice [3]): improved
stem cell-mediated cardiomyocyte reconstitution (MerCreMer/ZEG (M/Z) mice [4]; border zone, P<0.01 versus sham or MI): successfully recover
stem cell-mediated cardiomyocyte reconstitution (MerCreMer/ZEG (M/Z) mice [4]; remote area): not in the remote area
rescue of cardiomyocyte replenishment compared to indomethacin treatment alone (MerCreMer/ZEG (M/Z) mice [4]; border zone, PGE2 plus indomethacin, P<0.01): about 10%
increase of cardiomyocyte replenishment compared to the vehicle control (MerCreMer/ZEG (M/Z) mice [4]; border zone, young mice, 3.33 ng per 1 g i.p. twice daily for 14 days, P<0.01): about 9%
expression of interleukin-10 (IL-10) (interleukin-10 (IL-10)): enhanced
